Assay results: patent publication US8049037B2, “Sphingosine-1-phosphate (S1P) receptor antagonists and methods for use thereof” (Allergan, Inc., priority 2008, dated 2011)

Molecular target: T1, human S1P3 receptor (Homo sapiens, UniProt Q99500)
T1 construct: expressed in transfected cells
Assay: S1P3 FLIPR Ca2+ assay in T24 cells stably expressing the human S1P3 receptor
Format: cell-based
Settings: for IC50: tested over 0.61 nM to 10,000 nM, read-out: IC50, activity potency human S1P3 receptor from FLIPR
Description: The compounds of the invention were tested for S1P3 activity using the Flipr assay. The compounds may be assessed for ability to activate or block activation of the human S1P3 receptor in T24 cells stably expressing the human S1P3 receptor. Ten thousand cells/well are plated into 384-well poly-D-lysine coated plates one day prior to use. The growth media for the S1P3 receptor expressing cell line McCoy's 5A medium supplemented with 10% charcoal-treated fetal bovine serum (FBS), 1% antibiotic-antimycotic and 400 μg/mL genetecin. On the day of the experiment, the cells are washed twice Hank's Balanced Salt Solution supplemented with 20 mM HEPES (HBSS/Hepes buffer). The cells are then dye loaded with 2 μM Fluo-4 diluted in the HBSS/Hepes buffer with 1.25 mM Probenecid and incubated at 37° C. for 40 minutes. Extracellular dye is removed by washing the cell plates four times prior to placing the plates in the FLIPR (Fluorometric Imaging Plate Reader, Molecular Devices). Ligands are diluted in HBSS/Hepes buffer and prepared in 384-well microplates. The positive control, Sphingosine-1-phosphate (SIP), is diluted in HBSS/Hepes buffer with 4 mg/mL fatty acid free bovine serum albumin. The FLIPR transfers 12.5 μL from the ligand microplate to the cell plate and takes fluorescent measurements for 75 seconds, taking readings every second, and then for 2.5 minutes, taking readings every 10 seconds. Drugs are tested over the concentration range of 0.61 nM to 10,000 nM. Data for Ca^+2 responses are obtained in arbitrary fluorescence units and not translated into Ca^+2 concentrations. IC50 values are determined through a […] analysis using the Levenburg Marquardt algorithm.

T1 sequence (Q99500 whole entry): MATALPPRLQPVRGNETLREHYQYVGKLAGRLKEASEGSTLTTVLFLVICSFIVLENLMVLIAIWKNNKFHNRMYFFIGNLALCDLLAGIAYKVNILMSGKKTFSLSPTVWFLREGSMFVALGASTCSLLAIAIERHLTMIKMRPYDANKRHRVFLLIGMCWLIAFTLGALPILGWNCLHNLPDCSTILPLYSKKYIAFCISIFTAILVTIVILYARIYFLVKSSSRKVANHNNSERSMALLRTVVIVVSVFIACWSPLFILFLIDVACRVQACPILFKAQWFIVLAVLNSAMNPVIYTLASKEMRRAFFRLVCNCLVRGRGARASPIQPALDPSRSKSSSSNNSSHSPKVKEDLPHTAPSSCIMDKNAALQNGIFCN

Row | Structure (SMILES) | % Antagonism, human S1P3 receptor from FLIPR [%] | IC50 [nM]
1 | O=C(NC(Nc1ccc([N+](=O)[O-])cc1)C(Cl)(Cl)Cl)c1ccc(Cl)cc1 (stereo not drawn) | 93 | 1370
2 | O=C(NC(Nc1ccccc1)C(Cl)(Cl)Cl)c1ccc(Br)cc1 (stereo not drawn) | 97 | 148
3 | COc1ccc(C(=O)NC(Nc2ccc(Cl)cc2)C(Cl)(Cl)Cl)cc1 (stereo not drawn) | 96 | 278
4 | O=C(NC(Nc1ccc(Cl)cc1)C(Cl)(Cl)Cl)c1cccc(Cl)c1 (stereo not drawn) | 94 | 1520
5 | COc1ccc(NC(NC(=O)c2ccc(Br)cc2)C(Cl)(Cl)Cl)cc1 (stereo not drawn) | 94 | 492
6 | COc1ccc(C(=O)NC(Nc2ccc(C)cc2)C(Cl)(Cl)Cl)cc1 (stereo not drawn) | 98 | 466
7 | O=C(NC(Nc1ccc(Br)cc1)C(Cl)(Cl)Cl)c1ccc([N+](=O)[O-])cc1 (stereo not drawn) | 91 | 1450
8 | Cc1ccc(C(=O)NC(Nc2ccc(Cl)cc2)C(Br)(Br)Br)cc1 (stereo not drawn) | 76 | 1140
9 | O=C(NC(Nc1ccccc1C(F)(F)F)C(Cl)(Cl)Cl)c1ccco1 (stereo not drawn) | 56 | 1410
10 | O=C(NC(Nc1ccc(Br)cc1)C(Cl)(Cl)Cl)c1ccco1 (stereo not drawn) | 98 | 365
11 | O=C(NC(Nc1ccc(Cl)cc1)C(Cl)(Cl)Cl)c1ccc(F)c(F)c1 (stereo not drawn) [3,4-difluoro-N-(2,2,2-trichloro-1-(4-chlorophenylamino)ethyl)benzamide] | 95 | 256
12 | O=C(NC(Nc1ccc(Cl)cc1)C(Br)(Br)Br)c1ccc(Br)cc1 (stereo not drawn) [4-bromo-N-(2,2,2-tribromo-1-(4-chlorophenylamino)ethyl)benzamide] | 100 | 98
13 | O=C(NC(Nc1ccc(Cl)cc1)C(Cl)(Cl)Cl)c1ccc(Br)cc1 (stereo not drawn) [4-bromo-N-(2,2,2-trichloro-1-(4-chlorophenylamino)ethyl)benzamide] | 96 | 28
14 | O=C(NC(Nc1ccc(Cl)cc1)C(Cl)(Cl)Cl)c1cc(Br)co1 (stereo not drawn) [4-bromo-N-(2,2,2-trichloro-1-(4-chlorophenylamino)ethyl)furan-2-carboxamide] | 90 | 9.5
15 | Cc1ccc(NC(NC(=O)c2ccc(Br)cc2)C(Cl)(Cl)Cl)cc1 (stereo not drawn) [4-bromo-N-(2,2,2-trichloro-1-(p-tolylamino)ethyl)benzamide] | 100 | 73
16 | O=C(NC(Nc1ccc(Cl)cc1)C(F)(F)F)c1ccc(Br)cc1 (stereo not drawn) [4-bromo-N-[1-(4-chlorophenylamino)-2,2,2-trifluoro-ethyl]-benzamide] | 100 | 2990
17 | O=C(NC(Nc1ccc(Cl)c(F)c1)C(Cl)(Cl)Cl)c1ccc(Br)cc1 (stereo not drawn) [4-bromo-N-[2,2,2-trichloro-1-(4-chloro-3-fluoro-phenylamino)-ethyl]-benzamide] | 95 | 110
18 | O=C(NC(Nc1ccc(Cl)cc1)C(Cl)(Cl)Cl)c1ccc(Cl)cc1 (stereo not drawn) [4-chloro-N-(2,2,2-trichloro-1-(4-chlorophenylamino)ethyl)benzamide] | 100 | 145
19 | O=C(NC(Nc1ccc(Cl)cc1)C(F)(F)F)c1ccc(Br)cn1 (stereo not drawn) [5-Bromo-N-(1-(4-chlorophenylamino)-2,2,2-trifluoroethyl)picolinamide] | 99 | 4.7

More lines, now with the values ahead:

Row | % Antagonism, human S1P3 receptor from FLIPR [%] | IC50 [nM] | Structure (SMILES)
20 | 96 | 16 | O=C(NC(Nc1ccc(Cl)cc1)C(Cl)(Cl)Cl)c1ccc(Br)cc1 (single isomer, unassigned; (-)) [(−)-4-bromo-N-(2,2,2-trichloro-1-(4-chlorophenylamino)ethyl)benzamide]
21 | 99 | 1.4 | O=C(NC(Nc1ccc(Cl)cc1)C(Cl)(Cl)Cl)c1ccc(Br)cn1 (single isomer, unassigned; (-)) [(−)-5-bromo-N-(2,2,2-trichloro-1-(4-chlorophenylamino)ethyl)picolinamide]
22 | 99 | 1650 | O=C(NC(Nc1ccc(Cl)cc1)C(F)(F)Cl)c1ccc(Br)cn1 (stereo not drawn) [5-Bromo-N-(2-chloro-1-(4-chlorophenylamino)-2,2-difluoroethyl)picolinamide]
23 | 98 | 6.3 | O=C(NC(Nc1ccc(Cl)cc1)C(Cl)(Cl)Cl)c1ccc(Cl)cn1 (stereo not drawn) [5-Chloro-N-(2,2,2-trichloro-1-(4-chlorophenylamino)ethyl)picolinamide]
24 | 99 | 2 | O=C(NC(Nc1ccc(Cl)cc1)C(Cl)(Cl)Cl)c1ccc(Br)cn1 (stereo not drawn) [5-bromo-N-(2,2,2-trichloro-1-(4-chlorophenylamino)ethyl)picolinamide]
25 | 95 | 711 | O=C(NC(Nc1ccc(Cl)cc1)C(Cl)(Cl)Cl)c1ccc(Br)o1 (stereo not drawn) [5-bromo-furan-2-carboxylic acid (2,2,2-trichloro-1-(4-chloro-phenylamino)-ethyl)-amide]
26 | 97 | 245 | O=C(NC(Nc1ccc(Cl)cc1)C(Cl)(Cl)Cl)c1ccc(Br)nc1 (stereo not drawn) [6-bromo-N-(2,2,2-trichloro-1-(4-chlorophenylamino)ethyl)nicotinamide]
27 | 98 | 291 | O=C(NC(Nc1ccc(Cl)c(F)c1)C(Cl)(Cl)Cl)c1ccco1 (stereo not drawn) [Furan-2-carboxylic acid (2,2,2-trichloro-1-(4-chloro-3-fluoro-phenylamino)-ethyl)-amide]
28 | 100 | 454 | Cc1ccc(NC(NC(=O)c2ccco2)C(Cl)(Cl)Cl)cc1 (stereo not drawn) [Furan-2-carboxylic acid (2,2,2-trichloro-1-p-tolylamino-ethyl)-amide]
29 | 41 | 1470 | Cc1cccc(C)c1NC(NC(=O)c1ccco1)C(Cl)(Cl)Cl (stereo not drawn) [N-{2,2,2-trichloro-1-[(2,6-dimethylphenyl)amino]ethyl}-2-furamide]
30 | 102 | 1400 | Cc1ccc(NC(NC(=O)c2ccco2)C(Cl)(Cl)Cl)c(F)c1 (stereo not drawn) [N-{2,2,2-trichloro-1-[(2-fluoro-4-methylphenyl)amino]ethyl}-2-furamide]
31 | 98 | 1100 | O=C(NC(Nc1ccccc1F)C(Cl)(Cl)Cl)c1ccco1 (stereo not drawn) [N-{2,2,2-trichloro-1-[(2-fluorophenyl)amino]ethyl}-2-furamide]
32 | 100 | 363 | O=C(NC(Nc1cccc(F)c1)C(Cl)(Cl)Cl)c1ccco1 (stereo not drawn) [N-{2,2,2-trichloro-1-[(3-fluorophenyl)amino]ethyl}-2-furamide]
33 | 98 | 270 | O=C(NC(Nc1ccc(Cl)cc1)C(Cl)(Cl)Cl)c1ccco1 (stereo not drawn) [N-{2,2,2-trichloro-1-[(4-chlorophenyl)amino]ethyl}-2-furamide]
34 | 95 | 1180 | Cc1cc(F)ccc1NC(NC(=O)c1ccco1)C(Cl)(Cl)Cl (stereo not drawn) [N-{2,2,2-trichloro-1-[(4-fluoro-2-methylphenyl)amino]ethyl}-2-furamide]
35 | 99 | 430 | Cc1cc(NC(NC(=O)c2ccco2)C(Cl)(Cl)Cl)ccc1F (stereo not drawn) [N-{2,2,2-trichloro-1-[(4-fluoro-3-methylphenyl)amino]ethyl}-2-furamide]
36 | 99 | 498 | O=C(NC(Nc1ccc(F)cc1)C(Cl)(Cl)Cl)c1ccco1 (stereo not drawn) [N-{2,2,2-trichloro-1-[(4-fluorophenyl)amino]ethyl}-2-furamide]
